In ChEMBL document CHEMBL1201862, “PubChem BioAssay data set” (2004):
Active and inactive are the calls of the source.

Key:
[1] = biological target: 1-phosphatidylinositol 4,5-bisphosphate phosphodiesterase beta-3 (Homo sapiens, UniProt Q01970); experiment: Fluorescence-based biochemical high throughput dose response assay to identify inhibitors of phospholipase C isozymes (PLC-B3).
[2] = biological target: T1, Small ubiquitin-related modifier 1 (Homo sapiens, UniProt P63165); experiment: SUMO1 protein-protein binding blockers, potency – biochemical, FRET, dose response (AID 624383); assay type: functional; settings: read-out: IC50_Mean
T1 sequence (P63165 whole entry): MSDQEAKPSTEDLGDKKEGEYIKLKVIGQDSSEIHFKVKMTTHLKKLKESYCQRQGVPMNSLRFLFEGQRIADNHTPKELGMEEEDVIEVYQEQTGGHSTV

[3] = biological target: T1, Small ubiquitin-related modifier 1; experiment: SUMO1 protein interaction blockers, potency – biochemical, fluorescence polarization, uHTS hits, dose response (AID 624382); assay type: functional; settings: read-out: IC50_Mean
[4] = biological target: 1-phosphatidylinositol 4,5-bisphosphate phosphodiesterase gamma-1 (Homo sapiens, UniProt P19174); experiment: Counterscreen for inhibitors of phospholipase C isozymes (PLC-B3): Fluorescence-based biochemical high throughput dose response assay to identify inhibitors of phospholipase C isozymes (PLC-gamma1).
1-phosphatidylinositol 4,5-bisphosphate phosphodiesterase gamma-1, sequence (P19174 whole entry): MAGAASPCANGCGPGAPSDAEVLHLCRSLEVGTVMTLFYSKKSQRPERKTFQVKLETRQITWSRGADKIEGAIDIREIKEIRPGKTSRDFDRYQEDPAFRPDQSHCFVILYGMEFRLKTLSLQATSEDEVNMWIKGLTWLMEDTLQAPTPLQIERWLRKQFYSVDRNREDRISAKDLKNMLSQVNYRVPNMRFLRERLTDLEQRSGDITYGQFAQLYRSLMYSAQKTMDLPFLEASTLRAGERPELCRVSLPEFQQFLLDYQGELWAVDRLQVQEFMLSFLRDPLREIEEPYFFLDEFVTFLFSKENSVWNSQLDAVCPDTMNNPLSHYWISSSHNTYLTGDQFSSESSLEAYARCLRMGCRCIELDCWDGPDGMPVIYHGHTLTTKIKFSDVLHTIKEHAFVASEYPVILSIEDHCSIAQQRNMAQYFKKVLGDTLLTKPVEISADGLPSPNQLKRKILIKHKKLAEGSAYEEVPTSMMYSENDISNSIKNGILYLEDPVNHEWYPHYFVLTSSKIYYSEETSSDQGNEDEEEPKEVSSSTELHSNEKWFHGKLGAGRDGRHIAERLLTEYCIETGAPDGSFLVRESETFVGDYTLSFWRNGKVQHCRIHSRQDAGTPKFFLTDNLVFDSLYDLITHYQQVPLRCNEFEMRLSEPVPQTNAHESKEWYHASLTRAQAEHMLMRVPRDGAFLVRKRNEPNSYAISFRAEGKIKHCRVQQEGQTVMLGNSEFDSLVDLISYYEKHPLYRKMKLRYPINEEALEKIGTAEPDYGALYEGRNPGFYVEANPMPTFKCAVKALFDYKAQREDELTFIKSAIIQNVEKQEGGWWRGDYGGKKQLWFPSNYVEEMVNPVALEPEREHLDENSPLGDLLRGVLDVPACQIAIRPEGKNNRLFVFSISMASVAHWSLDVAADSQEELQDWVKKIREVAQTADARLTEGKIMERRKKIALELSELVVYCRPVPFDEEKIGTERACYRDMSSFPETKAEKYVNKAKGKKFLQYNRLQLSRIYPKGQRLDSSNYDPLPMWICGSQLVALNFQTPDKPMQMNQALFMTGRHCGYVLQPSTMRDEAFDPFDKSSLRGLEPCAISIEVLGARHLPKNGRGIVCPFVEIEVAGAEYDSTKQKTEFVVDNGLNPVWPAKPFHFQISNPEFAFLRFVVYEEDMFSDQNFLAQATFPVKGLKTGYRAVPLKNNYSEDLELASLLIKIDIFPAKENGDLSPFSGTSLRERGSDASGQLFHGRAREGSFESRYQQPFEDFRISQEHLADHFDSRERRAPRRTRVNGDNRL

[5] = biological target: Fructose-bisphosphate aldolase (Mycobacterium tuberculosis, UniProt P9WQA3); experiment: Fluorescence-based biochemical high throughput dose response assay for inhibitors of the fructose-bisphosphate aldolase (FBA) of M. tuberculosis.; assay type: functional
Fructose-bisphosphate aldolase, sequence (P9WQA3 whole entry): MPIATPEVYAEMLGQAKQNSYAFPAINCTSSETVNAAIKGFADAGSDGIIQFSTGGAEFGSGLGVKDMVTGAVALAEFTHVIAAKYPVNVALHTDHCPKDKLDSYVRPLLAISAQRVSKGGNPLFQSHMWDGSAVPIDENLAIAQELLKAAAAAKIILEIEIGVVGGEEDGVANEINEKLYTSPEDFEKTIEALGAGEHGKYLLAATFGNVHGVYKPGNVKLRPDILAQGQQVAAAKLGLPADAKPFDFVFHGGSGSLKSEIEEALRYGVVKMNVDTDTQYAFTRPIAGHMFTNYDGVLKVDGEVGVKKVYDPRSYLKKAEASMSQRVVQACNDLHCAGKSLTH

[6] = biological target: Potassium channel subfamily K member 9 (Homo sapiens, UniProt Q9NPC2); experiment: KCNK9 flux blockade, concentration-response – cell-based, FluxOR thallium flux, selectivity assay for TASK1 inhibitor project, SAR follow-up (AID 652211); assay type: functional;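 note: potency is for inhibitors of the channel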
Potassium channel subfamily K member 9, sequence (Q9NPC2 whole entry): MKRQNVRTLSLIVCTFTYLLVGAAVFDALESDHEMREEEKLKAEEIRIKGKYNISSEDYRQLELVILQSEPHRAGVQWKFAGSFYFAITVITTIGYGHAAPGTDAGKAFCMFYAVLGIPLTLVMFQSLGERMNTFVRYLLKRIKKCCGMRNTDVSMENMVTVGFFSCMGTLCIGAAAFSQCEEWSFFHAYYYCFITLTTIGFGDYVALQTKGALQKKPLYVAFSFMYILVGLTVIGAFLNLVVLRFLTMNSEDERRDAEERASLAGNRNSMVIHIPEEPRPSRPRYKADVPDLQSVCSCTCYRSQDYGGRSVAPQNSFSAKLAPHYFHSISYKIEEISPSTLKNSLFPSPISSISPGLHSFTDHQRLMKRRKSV

[7] = biological target: Potassium channel subfamily K member 3 (Homo sapiens, UniProt O14649); experiment: inhibition of human KCNK3 channel flux – CHO cells, FluxOR thallium flux, SAR follow-up (AID 652212); assay type: functional
Potassium channel subfamily K member 3, sequence (O14649 whole entry): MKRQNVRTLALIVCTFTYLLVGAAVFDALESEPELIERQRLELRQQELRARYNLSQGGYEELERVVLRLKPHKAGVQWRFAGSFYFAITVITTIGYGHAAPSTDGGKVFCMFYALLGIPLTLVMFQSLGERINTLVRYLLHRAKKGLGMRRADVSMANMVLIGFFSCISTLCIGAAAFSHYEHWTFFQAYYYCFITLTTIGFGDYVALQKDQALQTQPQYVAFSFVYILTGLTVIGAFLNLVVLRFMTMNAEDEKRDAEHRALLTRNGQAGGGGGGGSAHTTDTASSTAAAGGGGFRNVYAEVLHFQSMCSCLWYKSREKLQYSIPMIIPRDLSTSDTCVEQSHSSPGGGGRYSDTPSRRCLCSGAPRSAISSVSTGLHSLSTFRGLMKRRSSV

[8] = viability loss in THP-1 monocytes – THP-1 cells, cytotoxicity control for Vif-APOBEC3G degradation inhibitor project, dose response (AID 1117359); assay type: functional; settings: THP-1
[9] = biological target: T2, Microphthalmia-associated transcription factor (Homo sapiens, UniProt O75030); experiment: reducers of TRPM1 reporter luminescence, concentration series – cell-based, SK-MEL-5, cherry-picked, set 3, MITF inhibitor project, dose response (AID 493073); assay type: functional;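 note: SK-MEL-5 melanoma cells with luciferase driven by the MITF target TRPM1 promoter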
T2 sequence (O75030 whole entry): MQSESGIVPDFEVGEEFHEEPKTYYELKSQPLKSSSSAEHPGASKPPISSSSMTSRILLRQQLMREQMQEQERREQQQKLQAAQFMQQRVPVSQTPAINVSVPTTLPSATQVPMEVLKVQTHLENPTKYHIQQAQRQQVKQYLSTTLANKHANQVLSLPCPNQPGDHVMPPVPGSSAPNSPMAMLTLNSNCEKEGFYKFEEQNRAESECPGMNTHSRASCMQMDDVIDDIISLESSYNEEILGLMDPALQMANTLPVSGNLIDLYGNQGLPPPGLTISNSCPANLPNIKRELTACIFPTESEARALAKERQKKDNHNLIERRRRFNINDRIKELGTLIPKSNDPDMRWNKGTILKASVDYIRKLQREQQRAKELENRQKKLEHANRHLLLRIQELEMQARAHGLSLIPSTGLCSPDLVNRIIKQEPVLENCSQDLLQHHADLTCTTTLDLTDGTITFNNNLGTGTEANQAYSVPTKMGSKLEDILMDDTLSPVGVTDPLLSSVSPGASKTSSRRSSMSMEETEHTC

[10] = biological target: Induced myeloid leukemia cell differentiation protein Mcl-1 (Homo sapiens, UniProt Q07820); assay type: functional
Induced myeloid leukemia cell differentiation protein Mcl-1, sequence (Q07820 whole entry): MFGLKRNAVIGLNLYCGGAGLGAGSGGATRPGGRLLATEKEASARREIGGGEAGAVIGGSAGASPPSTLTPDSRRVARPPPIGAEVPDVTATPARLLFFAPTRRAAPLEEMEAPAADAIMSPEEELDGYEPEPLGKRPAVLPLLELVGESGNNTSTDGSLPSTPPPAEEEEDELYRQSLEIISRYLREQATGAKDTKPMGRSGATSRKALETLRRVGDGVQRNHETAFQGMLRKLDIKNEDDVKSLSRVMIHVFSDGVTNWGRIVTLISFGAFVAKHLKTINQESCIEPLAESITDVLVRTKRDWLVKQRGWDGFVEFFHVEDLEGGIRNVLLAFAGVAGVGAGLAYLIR

[11] = viability of PTEN-deleted HCT116 cells – cell-based, HCT116 PTEN knockout, dose response (AID 1047); assay type: functional;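 note: HCT116 colon tumor cells with PTEN knocked out; cells exposed to compound for 60 hours before readout; potency for loss of cell viability measured by luminescence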
[12] = reduced cellular PGC1a acetyl-lysine signal – cell-based, cherry-picked samples, dose response (AID 720514); assay type: functional;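 note: potency may reflect raised or lowered acetylation signal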
[13] = viability of HCT116 lacking mutant beta-catenin – cell-based, human colon tumor, dose response (AID 1045); assay type: functional;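 note: HCT116 colon tumor cells with beta catenin knocked out; cells exposed to compound for 60 hours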
[14] = biological target: T3, Oxysterols receptor LXR-beta (Homo sapiens, UniProt P55055); assay type: functional, cell-based;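 note: agonist activity at LXR measured by a cell-based luminescence readout across a dose range, run as a counterscreen for daf-12 agonists; HEK293 cells with Gal4-LXR fusion and GAL4-driven luciferase reporter; potency for activation of Gal4-LXR reporter so compounds are agonists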
T3 sequence (P55055 whole entry): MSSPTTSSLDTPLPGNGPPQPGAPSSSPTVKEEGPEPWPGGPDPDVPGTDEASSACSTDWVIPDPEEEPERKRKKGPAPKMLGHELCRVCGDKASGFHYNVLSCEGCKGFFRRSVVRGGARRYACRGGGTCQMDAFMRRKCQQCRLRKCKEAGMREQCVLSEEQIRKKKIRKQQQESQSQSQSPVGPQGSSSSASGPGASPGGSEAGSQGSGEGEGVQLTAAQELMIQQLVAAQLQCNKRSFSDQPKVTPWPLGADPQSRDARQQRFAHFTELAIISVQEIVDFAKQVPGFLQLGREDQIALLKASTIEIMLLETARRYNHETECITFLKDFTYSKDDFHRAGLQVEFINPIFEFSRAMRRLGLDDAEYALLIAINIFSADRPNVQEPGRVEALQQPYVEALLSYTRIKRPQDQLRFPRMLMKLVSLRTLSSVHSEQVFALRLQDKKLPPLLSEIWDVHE

1-phosphatidylinositol 4,5-bisphosphate phosphodiesterase beta-3, sequence (Q01970 whole entry): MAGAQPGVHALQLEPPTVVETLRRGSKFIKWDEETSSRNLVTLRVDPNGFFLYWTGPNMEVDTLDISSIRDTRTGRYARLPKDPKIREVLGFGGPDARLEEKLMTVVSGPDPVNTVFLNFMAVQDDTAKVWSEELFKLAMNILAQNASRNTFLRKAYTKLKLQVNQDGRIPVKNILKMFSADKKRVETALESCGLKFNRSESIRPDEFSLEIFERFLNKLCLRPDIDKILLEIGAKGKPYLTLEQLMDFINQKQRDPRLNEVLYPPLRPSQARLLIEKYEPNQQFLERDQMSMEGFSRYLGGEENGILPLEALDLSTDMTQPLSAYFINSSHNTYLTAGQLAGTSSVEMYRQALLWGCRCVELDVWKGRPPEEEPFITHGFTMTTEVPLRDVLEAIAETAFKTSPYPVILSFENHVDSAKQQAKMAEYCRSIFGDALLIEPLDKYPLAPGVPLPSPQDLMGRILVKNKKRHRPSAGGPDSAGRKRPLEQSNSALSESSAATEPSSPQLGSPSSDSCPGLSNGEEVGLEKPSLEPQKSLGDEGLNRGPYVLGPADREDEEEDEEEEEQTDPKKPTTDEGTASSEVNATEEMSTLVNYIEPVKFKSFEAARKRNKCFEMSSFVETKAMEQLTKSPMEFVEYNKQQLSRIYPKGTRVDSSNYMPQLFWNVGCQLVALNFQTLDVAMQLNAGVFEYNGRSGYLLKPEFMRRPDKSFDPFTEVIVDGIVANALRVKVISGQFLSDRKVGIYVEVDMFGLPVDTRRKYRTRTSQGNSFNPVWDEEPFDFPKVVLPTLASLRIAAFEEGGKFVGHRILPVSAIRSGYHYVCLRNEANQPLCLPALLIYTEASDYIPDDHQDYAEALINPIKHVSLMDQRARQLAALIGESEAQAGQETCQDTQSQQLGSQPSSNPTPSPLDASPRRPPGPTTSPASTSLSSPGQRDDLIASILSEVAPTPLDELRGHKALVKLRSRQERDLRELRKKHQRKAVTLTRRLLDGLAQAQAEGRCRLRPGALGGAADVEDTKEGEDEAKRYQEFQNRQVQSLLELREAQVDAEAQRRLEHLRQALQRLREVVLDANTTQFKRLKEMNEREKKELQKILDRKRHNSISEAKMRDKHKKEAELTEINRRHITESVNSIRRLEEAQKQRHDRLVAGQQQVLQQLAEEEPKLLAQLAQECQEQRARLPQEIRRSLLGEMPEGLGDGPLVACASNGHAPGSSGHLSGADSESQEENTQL

## O=C1NC[C@@H](Cc2ccc(O)cc2)N(CCc2cc(C(F)(F)F)cc(C(F)(F)F)c2)C1=O
[1]
  IC50: > 122 µM (inactive)
[2]
  IC50: 9.75 µM (active)
[3]
  IC50: > 66.6 µM (inactive)
[4]
  IC50: 82.2 µM (inactive)

## Cc1cc(-c2ccc(Cl)cc2)n2nc(N)nc2n1
[5]
  IC50: 1.4 µM (active)

## Cc1cccc(C(=O)Nc2cccc(NC(=O)c3cccc(C(F)(F)F)c3)c2)c1
[6]
  IC50: 3.06 µM (active)
[7]
  IC50: 0.009 µM (active)

## Cc1ccccc1S(=O)(=O)Cc1ccc(C(=O)NCCCN2CCC(C)CC2)o1
[8]
  CC50: > 40 µM (active)

## C=CCn1c(C)cc(C(=O)Cn2ncc(Cl)c(Cl)c2=O)c1C
[9]
  AC50: 9.97 µM (active)
[10]
  IC50: 5.14 µM (active)
[11]
  EC50: 3.08 µM (active)
[12]
  AC50: 5.68 µM (active)
[13]
  EC50: 2.12 µM (active)

## CC(C)CC#Cc1ccc2c(c1)O[C@H](CN(C)Cc1ccccc1)[C@@H](C)CN([C@H](C)CO)S2(=O)=O
[12]
  AC50: 16.4 µM (active)

## CCOc1c2ccc(C(=O)NC3CCCc4ccccc43)cc2nn1CC (stereo unspecified)
[5]
  IC50: 1.64 µM (active)

## OCCN1CCN(c2cnc(-c3ccsc3)cn2)CC1
[14]
  EC50: > 67.5 µM (inactive)
